Data taken from patent US9938290B2, “Tricyclic heterocyclic compounds as phosphoinositide 3-kinase inhibitors” (Karus Therapeutics Limited, priority 2009, dated 2018).

Tests used:
MCF7 (Breast Tumour) = assay: In vitro inhibition of tumour cell proliferation, MCF7; format: cell-based
A549 (Lung Tumour) = assay: In vitro inhibition of tumour cell proliferation, A549; format: cell-based
PC3 (Prostate Tumour) = assay: In vitro inhibition of tumour cell proliferation, PC3; format: cell-based
[1] = system: Rheumatoid Arthritis Synovial Fibroblast (RASF); assay: In vitro inhibition of rheumatoid arthritis synovial fibroblast (RASF) proliferation; format: cell-based
[2] = system: IL-23 production in hPBMCs; assay: Inhibition of IL-23 production from anti-CD3-stimulated hPBMCs; format: cell-based, human; conditions: hPBMCs stimulated with anti-CD3
Method: (§1) 2) Anti-Inflammatory Activity: Inhibition of the Production of Pro-Inflammatory Cytokines from Stimulated Human Peripheral Blood Mononuclear Cells (hPBMCs)
(§2) Compounds were tested at a concentration of 1 uM for cytokine release inhibition in hPBMCs stimulated with LPS (TNFα), PHA (IFNγ) and anti-CD3 (IL-17A, IL-17F, IL-21, IL-23): […]

[3] = system: IFNγ production in hPBMCs; assay: Inhibition of IFNγ production from PHA-stimulated hPBMCs; format: cell-based, human; conditions: hPBMCs stimulated with PHA
Method: as §1, §2

[4] = system: IL-17A production in hPBMCs; assay: Inhibition of IL-17A production from anti-CD3-stimulated hPBMCs; format: cell-based, human; conditions: hPBMCs stimulated with anti-CD3
Method: as §1, §2

[5] = system: TNFα production in hPBMCs; assay: Inhibition of TNFα production from LPS-stimulated hPBMCs; format: cell-based, human; conditions: hPBMCs stimulated with LPS
Method: as §1, §2

[6] = system: IL-17F production in hPBMCs; assay: Inhibition of IL-17F production from anti-CD3-stimulated hPBMCs; format: cell-based, human; conditions: hPBMCs stimulated with anti-CD3
Method: as §1, §2

[7] = system: IL-21 production in hPBMCs; assay: Inhibition of IL-21 production from anti-CD3-stimulated hPBMCs; format: cell-based, human; conditions: hPBMCs stimulated with anti-CD3
Method: as §1, §2

| Molecule | IC50 (MCF7 (Breast Tumour)) [nM] | IC50 (A549 (Lung Tumour)) [nM] | IC50 (PC3 (Prostate Tumour)) [nM] | IC50 [1] [nM] | % Inhibition of Proinflammatory Cytokine Production at 1 uM, IL-23 [2] [%] | % Inhibition of Proinflammatory Cytokine Production at 1 uM, IFNγ [3] [%] | % Inhibition of Proinflammatory Cytokine Production at 1 uM, IL-17A [4] [%] | % Inhibition of Proinflammatory Cytokine Production at 1 uM, TNFα [5] [%] | % Inhibition of Proinflammatory Cytokine Production at 1 uM, IL-17F [6] [%] | % Inhibition of Proinflammatory Cytokine Production at 1 uM, IL-21 [7] [%] |
| --- | --- | --- | --- | --- | --- | --- | --- | --- | --- | --- |
| c1cc(-c2nc(N3CCOCC3)c3oc4ncc(CN5CCOCC5)cc4c3n2)c2cc[nH]c2c1 [K, 2-(1H-Indol-4-yl)-4-morpholin-4-yl-8-morpholin-4-ylmethyl-pyrido[3′,2′:4,5]furo[3,2-d]pyrimidine] | 352 | 682 | 3340 | 3020 |  |  |  |  |  |  |
| (E)-1-(4-Methyl-piperazin-1-yl)-3-[4-morpholin-4-yl-2-(1H-pyrrolo[2,3-b]pyridin-4-yl)-pyrido[3′,2′:4,5]furo[3,2-d]pyrimidin-8-yl]-propenone |  |  |  |  | 93 | 67 | 77 | 74 | 74 | 82 |
